Test results published in patent EP0327492A1, “Herbicidally and plantgrowth regulatory active quinoline and pyrindine compounds” (CIBA-GEIGY AG, priority 1988, dated 1989).

Key:
Format in all cases: in vivo
[1] = test system: Soja; test: Pre-emergent herbicidal action (B.2), crop tolerance; conditions: 500 bis 2000 [g/ha], evaluated after 3 weeks
Procedure: (§1) Im Gewächshaus wird unmittelbar nach der Einsaat der Versuchspflanzen in Saatschalen die Erdoberfläche mit einer wässrigen Dispersion der Wirkstoffe, erhalten aus einem 25 %igen Emulsionskonzentrat behandelt. Es werden Konzentrationen von 2000-500 g Wirksubstanz/Hektar angewendet. Die Saatschalen werden im Gewächshaus bei 22-25° C und 50-70 % relativer Luftfeuchtigkeit gehalten und der Versuch nach 3 Wochen ausgewertet und die Resultate nach folgender Notenskala ausgewertet. • 1 Pflanze hat nicht gekeimt oder ist eingegangen • 2-3 sehr starke Schäden • 4 starke Schäden • 5 mittlere Schäden, die Pflanzen sind verkümmert • 6 Schäden, die Pflanze kann regenerieren • 7-8 leichte Schäden • 9 normales Wachstum, wie das unbehandelter Pflanzen
(§2) Boniturnoten von 1 bis 4 (insbesondere von 1 bis 3) weisen auf eine gute bis sehr gute Herbizidwirkung hin. Boniturnoten von 6 bis 9 (insbesondere 7 bis 9) weisen auf eine gute Toleranz (insbesondere bei Kulturpflanzen) hin.

[2] = test system: Amaranthus ret.; test: Pre-emergent herbicidal action (B.2); conditions: 500 bis 2000 [g/ha], evaluated after 3 weeks
Procedure: as §1, §2

[3] = test system: Solanum nigrum; test: Pre-emergent herbicidal action (B.2); conditions: 500 bis 2000 [g/ha], evaluated after 3 weeks
Procedure: as §1, §2

[4] = test system: Stellaria; test: Pre-emergent herbicidal action (B.2); conditions: 500 bis 2000 [g/ha], evaluated after 3 weeks
Procedure: as §1, §2

[5] = test system: Sorghum halep.; test: Pre-emergent herbicidal action (B.2); conditions: 500 bis 2000 [g/ha], evaluated after 3 weeks
Procedure: as §1, §2

[6] = test system: Chenopodium Sp.; test: Pre-emergent herbicidal action (B.2); conditions: 500 bis 2000 [g/ha], evaluated after 3 weeks
Procedure: as §1, §2

[7] = test system: Chrysanthe. leuc.; test: Pre-emergent herbicidal action (B.2); conditions: 500 bis 2000 [g/ha], evaluated after 3 weeks
Procedure: as §1, §2

[8] = test system: Lolium perenne; test: Pre-emergent herbicidal action (B.2); conditions: 500 bis 2000 [g/ha], evaluated after 3 weeks
Procedure: as §1, §2

[9] = test system: Echinochloa crus galli; test: Pre-emergent herbicidal action (B.2); conditions: 500 bis 2000 [g/ha], evaluated after 3 weeks
Procedure: as §1, §2

[10] = test system: Ipomoea; test: Pre-emergent herbicidal action (B.2); conditions: 500 bis 2000 [g/ha], evaluated after 3 weeks
Procedure: as §1, §2

[11] = test system: Galium aparine; test: Pre-emergent herbicidal action (B.2); conditions: 500 bis 2000 [g/ha], evaluated after 3 weeks
Procedure: as §1, §2

[12] = test system: Avena fatua; test: Pre-emergent herbicidal action (B.2); conditions: 500 bis 2000 [g/ha], evaluated after 3 weeks
Procedure: as §1, §2

[13] = test system: Sinapis; test: Pre-emergent herbicidal action (B.2); conditions: 500 bis 2000 [g/ha], evaluated after 3 weeks
Procedure: as §1, §2

[14] = test system: Alopecurus myos.; test: Pre-emergent herbicidal action (B.2); conditions: 500 bis 2000 [g/ha], evaluated after 3 weeks
Procedure: as §1, §2

[15] = test system: Digitaria sang.; test: Pre-emergent herbicidal action (B.2); conditions: 500 bis 2000 [g/ha], evaluated after 3 weeks
Procedure: as §1, §2

[16] = test system: Bromus tectorum; test: Pre-emergent herbicidal action (B.2); conditions: 500 bis 2000 [g/ha], evaluated after 3 weeks
Procedure: as §1, §2

[17] = test system: Abutilon; test: Pre-emergent herbicidal action (B.2); conditions: 500 bis 2000 [g/ha], evaluated after 3 weeks
Procedure: as §1, §2

[18] = test system: Veronica Sp.; test: Pre-emergent herbicidal action (B.2); conditions: 500 bis 2000 [g/ha], evaluated after 3 weeks
Procedure: as §1, §2

[19] = test system: Soja; test: Post-emergent herbicidal action (B.3), crop tolerance; conditions: 500 bis 2000 [g/ha], 15 days after treatment
Procedure: as §1, §2
(§3) Eine Anzahl Unkräuter, sowohl monokotyle wie dikotyle, werden nach dem Auflaufen (im 4- bis 6-Blattstadium) mit einer wässrigen Wirkstoffdispersion in einer Dosierung von 2000-500 g Wirksubstanz pro Hektar auf die Pflanzen gespritzt und diese bei 24°-26°C und 45-60 % relativer Luftfeuchtigkeit gehalten. 15 Tage nach der Behandlung wird der Versuch nach dem in Beispiel B.2. gegebenen Massstab bewertet.

[20] = test system: Baumwolle; test: as above; conditions: 500 bis 2000 [g/ha], 15 days after treatment
Procedure: as §1, §2, §3

[21] = test system: Amaranthus ret.; test: Post-emergent herbicidal action, contact herbicide (B.3); conditions: 500 bis 2000 [g/ha], 15 days after treatment
In short: (§4)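 Weeds at the 4- to 6-leaf stage were sprayed post-emergence with an aqueous dispersion of active ingredient at 2000-500 g a.i./ha. Plants were held at 24-26 °C and 45-60% relative humidity. Damage was scored 15 days after treatment on a 1-9 scale, from 1 (dead) to 9 (growth like untreated plants).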

[22] = test system: Solanum nigrum; test: as above; conditions: 500 bis 2000 [g/ha], 15 days after treatment
In short: as §4

[23] = test system: Stellaria; test: as above; conditions: 500 bis 2000 [g/ha], 15 days after treatment
In short: as §4

[24] = test system: Sorghum halep.; test: as above; conditions: 500 bis 2000 [g/ha], 15 days after treatment
In short: as §4

[25] = test system: Chenopodium Sp.; test: as above; conditions: 500 bis 2000 [g/ha], 15 days after treatment
In short: as §4

[26] = test system: Chrysanthe. leuc.; test: as above; conditions: 500 bis 2000 [g/ha], 15 days after treatment
In short: as §4

[27] = test system: Lolium perenne; test: as above; conditions: 500 bis 2000 [g/ha], 15 days after treatment
In short: as §4

[28] = test system: Echinochloa crus galli; test: as above; conditions: 500 bis 2000 [g/ha], 15 days after treatment
In short: as §4

[29] = test system: Galium aparine; test: as above; conditions: 500 bis 2000 [g/ha], 15 days after treatment
In short: as §4

[30] = test system: Avena fatua; test: as above; conditions: 500 bis 2000 [g/ha], 15 days after treatment
In short: as §4

[31] = test system: Sinapis; test: as above; conditions: 500 bis 2000 [g/ha], 15 days after treatment
In short: as §4

[32] = test system: Alopecurus myos.; test: as above; conditions: 500 bis 2000 [g/ha], 15 days after treatment
In short: as §4

[33] = test system: Digitaria sang.; test: as above; conditions: 500 bis 2000 [g/ha], 15 days after treatment
In short: as §4

[34] = test system: Bromus tectorum; test: as above; conditions: 500 bis 2000 [g/ha], 15 days after treatment
In short: as §4

[35] = test system: Xanthium Sp.; test: as above; conditions: 500 bis 2000 [g/ha], 15 days after treatment
In short: as §4

[36] = test system: Abutilon; test: as above; conditions: 500 bis 2000 [g/ha], 15 days after treatment
In short: as §4

[37] = test system: Veronica Sp.; test: as above; conditions: 500 bis 2000 [g/ha], 15 days after treatment
In short: as §4

CC1CCCc2nc(C3=NC(=O)C(C)(C(C)C)N3)c(C(=O)O)cc21 (stereo not shown) [Verbindung 2.02, 2-(5-Isopropyl-5-methyl-1 H-imidazol-4-on-2-yl)-5-methyl-5,6,7,8-tetrahydrochinolin-3-carbonsäure]
Toleranz (im Wachstum beeinflusst) [1]: gute Toleranz (Boniturnoten von 6 bis 9 (insbesondere 7 bis 9) weisen auf eine gute Toleranz (insbesondere bei Kulturpflanzen) hin)
Herbizidwirkung [2]: gute bis sehr gute Herbizidwirkung (Boniturnoten von 1 bis 4 (insbesondere von 1 bis 3) weisen auf eine gute bis sehr gute Herbizidwirkung hin)
Herbizidwirkung [3]: gute bis sehr gute Herbizidwirkung (Boniturnoten von 1 bis 4 (insbesondere von 1 bis 3) weisen auf eine gute bis sehr gute Herbizidwirkung hin)
Herbizidwirkung [4]: gute bis sehr gute Herbizidwirkung (Boniturnoten von 1 bis 4 (insbesondere von 1 bis 3) weisen auf eine gute bis sehr gute Herbizidwirkung hin)
Herbizidwirkung [5]: gute bis sehr gute Herbizidwirkung (Boniturnoten von 1 bis 4 (insbesondere von 1 bis 3) weisen auf eine gute bis sehr gute Herbizidwirkung hin)
Herbizidwirkung [6]: gute bis sehr gute Herbizidwirkung (Boniturnoten von 1 bis 4 (insbesondere von 1 bis 3) weisen auf eine gute bis sehr gute Herbizidwirkung hin)
Herbizidwirkung [7]: gute bis sehr gute Herbizidwirkung (Boniturnoten von 1 bis 4 (insbesondere von 1 bis 3) weisen auf eine gute bis sehr gute Herbizidwirkung hin)
Herbizidwirkung [8]: gute bis sehr gute Herbizidwirkung (Boniturnoten von 1 bis 4 (insbesondere von 1 bis 3) weisen auf eine gute bis sehr gute Herbizidwirkung hin)
Herbizidwirkung [9]: gute bis sehr gute Herbizidwirkung (Boniturnoten von 1 bis 4 (insbesondere von 1 bis 3) weisen auf eine gute bis sehr gute Herbizidwirkung hin)
Herbizidwirkung [10]: gute bis sehr gute Herbizidwirkung (Boniturnoten von 1 bis 4 (insbesondere von 1 bis 3) weisen auf eine gute bis sehr gute Herbizidwirkung hin)
Herbizidwirkung [11]: gute bis sehr gute Herbizidwirkung (Boniturnoten von 1 bis 4 (insbesondere von 1 bis 3) weisen auf eine gute bis sehr gute Herbizidwirkung hin)
Herbizidwirkung [12]: gute bis sehr gute Herbizidwirkung (Boniturnoten von 1 bis 4 (insbesondere von 1 bis 3) weisen auf eine gute bis sehr gute Herbizidwirkung hin)
Herbizidwirkung [13]: gute bis sehr gute Herbizidwirkung (Boniturnoten von 1 bis 4 (insbesondere von 1 bis 3) weisen auf eine gute bis sehr gute Herbizidwirkung hin)
Herbizidwirkung [14]: gute bis sehr gute Herbizidwirkung (Boniturnoten von 1 bis 4 (insbesondere von 1 bis 3) weisen auf eine gute bis sehr gute Herbizidwirkung hin)
Herbizidwirkung [15]: gute bis sehr gute Herbizidwirkung (Boniturnoten von 1 bis 4 (insbesondere von 1 bis 3) weisen auf eine gute bis sehr gute Herbizidwirkung hin)
Herbizidwirkung [16]: gute bis sehr gute Herbizidwirkung (Boniturnoten von 1 bis 4 (insbesondere von 1 bis 3) weisen auf eine gute bis sehr gute Herbizidwirkung hin)
Herbizidwirkung [17]: gute bis sehr gute Herbizidwirkung (Boniturnoten von 1 bis 4 (insbesondere von 1 bis 3) weisen auf eine gute bis sehr gute Herbizidwirkung hin)
Herbizidwirkung [18]: gute bis sehr gute Herbizidwirkung (Boniturnoten von 1 bis 4 (insbesondere von 1 bis 3) weisen auf eine gute bis sehr gute Herbizidwirkung hin)
Toleranz (im Wachstum beeinflusst) [19]: gute Toleranz (Boniturnoten von 6 bis 9 (insbesondere 7 bis 9) weisen auf eine gute Toleranz (insbesondere bei Kulturpflanzen) hin)
Toleranz (im Wachstum beeinflusst) [20]: gute Toleranz (Boniturnoten von 6 bis 9 (insbesondere 7 bis 9) weisen auf eine gute Toleranz (insbesondere bei Kulturpflanzen) hin)
Herbizidwirkung [21]: gute bis sehr gute Herbizidwirkung (Boniturnoten von 1 bis 4 (insbesondere von 1 bis 3) weisen auf eine gute bis sehr gute Herbizidwirkung hin)
Herbizidwirkung [22]: gute bis sehr gute Herbizidwirkung (Boniturnoten von 1 bis 4 (insbesondere von 1 bis 3) weisen auf eine gute bis sehr gute Herbizidwirkung hin)
Herbizidwirkung [23]: gute bis sehr gute Herbizidwirkung (Boniturnoten von 1 bis 4 (insbesondere von 1 bis 3) weisen auf eine gute bis sehr gute Herbizidwirkung hin)
Herbizidwirkung [24]: gute bis sehr gute Herbizidwirkung (Boniturnoten von 1 bis 4 (insbesondere von 1 bis 3) weisen auf eine gute bis sehr gute Herbizidwirkung hin)
Herbizidwirkung [25]: gute bis sehr gute Herbizidwirkung (Boniturnoten von 1 bis 4 (insbesondere von 1 bis 3) weisen auf eine gute bis sehr gute Herbizidwirkung hin)
Herbizidwirkung [26]: gute bis sehr gute Herbizidwirkung (Boniturnoten von 1 bis 4 (insbesondere von 1 bis 3) weisen auf eine gute bis sehr gute Herbizidwirkung hin)
Herbizidwirkung [27]: gute bis sehr gute Herbizidwirkung (Boniturnoten von 1 bis 4 (insbesondere von 1 bis 3) weisen auf eine gute bis sehr gute Herbizidwirkung hin)
Herbizidwirkung [28]: gute bis sehr gute Herbizidwirkung (Boniturnoten von 1 bis 4 (insbesondere von 1 bis 3) weisen auf eine gute bis sehr gute Herbizidwirkung hin)
Herbizidwirkung [29]: gute bis sehr gute Herbizidwirkung (Boniturnoten von 1 bis 4 (insbesondere von 1 bis 3) weisen auf eine gute bis sehr gute Herbizidwirkung hin)
Herbizidwirkung [30]: gute bis sehr gute Herbizidwirkung (Boniturnoten von 1 bis 4 (insbesondere von 1 bis 3) weisen auf eine gute bis sehr gute Herbizidwirkung hin)
Herbizidwirkung [31]: gute bis sehr gute Herbizidwirkung (Boniturnoten von 1 bis 4 (insbesondere von 1 bis 3) weisen auf eine gute bis sehr gute Herbizidwirkung hin)
Herbizidwirkung [32]: gute bis sehr gute Herbizidwirkung (Boniturnoten von 1 bis 4 (insbesondere von 1 bis 3) weisen auf eine gute bis sehr gute Herbizidwirkung hin)
Herbizidwirkung [33]: gute bis sehr gute Herbizidwirkung (Boniturnoten von 1 bis 4 (insbesondere von 1 bis 3) weisen auf eine gute bis sehr gute Herbizidwirkung hin)
Herbizidwirkung [34]: gute bis sehr gute Herbizidwirkung (Boniturnoten von 1 bis 4 (insbesondere von 1 bis 3) weisen auf eine gute bis sehr gute Herbizidwirkung hin)
Herbizidwirkung [35]: gute bis sehr gute Herbizidwirkung (Boniturnoten von 1 bis 4 (insbesondere von 1 bis 3) weisen auf eine gute bis sehr gute Herbizidwirkung hin)
Herbizidwirkung [36]: gute bis sehr gute Herbizidwirkung (Boniturnoten von 1 bis 4 (insbesondere von 1 bis 3) weisen auf eine gute bis sehr gute Herbizidwirkung hin)
Herbizidwirkung [37]: gute bis sehr gute Herbizidwirkung (Boniturnoten von 1 bis 4 (insbesondere von 1 bis 3) weisen auf eine gute bis sehr gute Herbizidwirkung hin)
